Results taken from paper PMC4175000 (Journal of Medicinal Chemistry, 2014).
Blank lines part the entries; values can stand above or below the compound they belong to.

Assays:
human M5 receptors = biological target: T1, human M5 receptors (Homo sapiens, UniProt P08912); test: hM5 PAM calcium mobilization assay; assay type: cell-based; settings: for improvement in hM5 PAM EC50 over the naked phenylsulfonamide: versus 6a
T1 sequence (P08912 1-532): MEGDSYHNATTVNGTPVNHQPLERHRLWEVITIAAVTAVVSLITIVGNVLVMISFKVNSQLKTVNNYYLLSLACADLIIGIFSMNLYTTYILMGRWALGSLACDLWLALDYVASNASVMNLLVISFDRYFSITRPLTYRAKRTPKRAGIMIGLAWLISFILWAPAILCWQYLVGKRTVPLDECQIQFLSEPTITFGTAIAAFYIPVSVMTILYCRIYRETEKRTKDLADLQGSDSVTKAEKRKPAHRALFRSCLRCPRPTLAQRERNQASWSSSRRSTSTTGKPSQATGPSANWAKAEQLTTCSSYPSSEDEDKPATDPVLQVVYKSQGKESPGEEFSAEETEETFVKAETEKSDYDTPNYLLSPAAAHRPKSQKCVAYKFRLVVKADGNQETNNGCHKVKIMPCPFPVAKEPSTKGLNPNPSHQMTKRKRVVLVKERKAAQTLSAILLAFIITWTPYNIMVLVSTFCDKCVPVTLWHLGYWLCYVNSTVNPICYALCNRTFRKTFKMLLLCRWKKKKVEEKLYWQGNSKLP

hM5 receptor [1] = biological target: T2, hM5 receptor (Homo sapiens, UniProt P08912); test: ACh CRC fold shift, calcium mobilization; assay type: cell-based; settings: compound at 10 μM; leftward shift in ACh potency at hM5; average ± SEM, n = 3–4
T2 sequence (P08912 1-532): T1 sequence (P08912 1-532)

[2] = in vitro metabolite identification; assay type: in vitro ADME
hM3 = hM3 (Homo sapiens, UniProt P20309); test: muscarinic selectivity calcium mobilization, hM3; assay type: cell-based; settings: hM5 versus hM3 PAM potency
hM5 receptor [3] = biological target: T2, hM5 receptor; test: [3H]NMS competition binding, hM5 CHO membranes; settings: 0.3 nM [3H]NMS
[4] = hepatic microsomal intrinsic clearance, rat; assay type: in vitro ADME
hM2 = biological target: T3, hM2 (Homo sapiens, UniProt P08172); test: muscarinic selectivity calcium mobilization, hM2/Gqi5; assay type: cell-based; settings: CHO hM2/Gqi5
T3 sequence (P08172 1-466): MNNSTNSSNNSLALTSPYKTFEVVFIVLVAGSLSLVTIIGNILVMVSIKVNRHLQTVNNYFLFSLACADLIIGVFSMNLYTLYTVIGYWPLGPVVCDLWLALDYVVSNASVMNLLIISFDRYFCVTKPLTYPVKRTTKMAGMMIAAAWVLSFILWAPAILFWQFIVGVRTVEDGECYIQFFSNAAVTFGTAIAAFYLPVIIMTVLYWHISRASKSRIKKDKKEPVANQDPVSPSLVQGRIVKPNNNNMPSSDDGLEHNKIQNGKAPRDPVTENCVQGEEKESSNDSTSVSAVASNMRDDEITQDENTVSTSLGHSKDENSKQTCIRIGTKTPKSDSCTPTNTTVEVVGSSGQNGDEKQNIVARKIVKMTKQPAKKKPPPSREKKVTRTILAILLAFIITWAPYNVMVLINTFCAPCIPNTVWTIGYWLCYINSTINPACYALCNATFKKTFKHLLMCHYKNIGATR

[5] = hepatic microsomal intrinsic clearance, human; assay type: in vitro ADME
hM4 = biological target: T4, hM4 (Homo sapiens, UniProt P08173); test: muscarinic selectivity calcium mobilization, hM4/Gqi5; assay type: cell-based; settings: CHO hM4/Gqi5
T4 sequence (P08173 1-479): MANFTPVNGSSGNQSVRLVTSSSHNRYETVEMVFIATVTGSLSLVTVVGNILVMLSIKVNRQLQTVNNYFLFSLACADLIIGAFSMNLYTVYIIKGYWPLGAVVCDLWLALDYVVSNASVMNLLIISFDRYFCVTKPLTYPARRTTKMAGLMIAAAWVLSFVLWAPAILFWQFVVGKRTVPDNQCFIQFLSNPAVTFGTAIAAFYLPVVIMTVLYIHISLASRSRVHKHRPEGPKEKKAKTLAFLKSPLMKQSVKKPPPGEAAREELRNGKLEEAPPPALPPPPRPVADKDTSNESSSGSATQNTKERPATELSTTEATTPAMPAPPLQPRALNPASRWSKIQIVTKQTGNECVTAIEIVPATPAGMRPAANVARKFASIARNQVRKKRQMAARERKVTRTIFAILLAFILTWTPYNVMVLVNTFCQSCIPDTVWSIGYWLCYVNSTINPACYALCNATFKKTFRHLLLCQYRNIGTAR

hM1 = biological target: T5, hM1 (Homo sapiens, UniProt P11229); test: muscarinic selectivity calcium mobilization, hM1; assay type: cell-based; settings: hM5 versus hM1 PAM potency
T5 sequence (P11229 1-460): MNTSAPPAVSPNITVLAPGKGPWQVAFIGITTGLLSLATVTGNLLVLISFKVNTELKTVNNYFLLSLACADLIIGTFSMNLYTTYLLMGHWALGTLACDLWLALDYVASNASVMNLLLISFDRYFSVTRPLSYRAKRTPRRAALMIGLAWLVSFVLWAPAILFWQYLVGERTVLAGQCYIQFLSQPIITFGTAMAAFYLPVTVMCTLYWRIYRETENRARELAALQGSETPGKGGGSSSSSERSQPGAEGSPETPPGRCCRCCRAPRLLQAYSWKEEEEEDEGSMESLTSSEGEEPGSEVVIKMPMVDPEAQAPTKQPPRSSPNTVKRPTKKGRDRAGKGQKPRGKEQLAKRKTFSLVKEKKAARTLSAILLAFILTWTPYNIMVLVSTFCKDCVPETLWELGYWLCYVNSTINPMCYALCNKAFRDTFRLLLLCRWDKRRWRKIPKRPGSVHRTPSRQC

Sequence of hM3 (P20309 whole entry): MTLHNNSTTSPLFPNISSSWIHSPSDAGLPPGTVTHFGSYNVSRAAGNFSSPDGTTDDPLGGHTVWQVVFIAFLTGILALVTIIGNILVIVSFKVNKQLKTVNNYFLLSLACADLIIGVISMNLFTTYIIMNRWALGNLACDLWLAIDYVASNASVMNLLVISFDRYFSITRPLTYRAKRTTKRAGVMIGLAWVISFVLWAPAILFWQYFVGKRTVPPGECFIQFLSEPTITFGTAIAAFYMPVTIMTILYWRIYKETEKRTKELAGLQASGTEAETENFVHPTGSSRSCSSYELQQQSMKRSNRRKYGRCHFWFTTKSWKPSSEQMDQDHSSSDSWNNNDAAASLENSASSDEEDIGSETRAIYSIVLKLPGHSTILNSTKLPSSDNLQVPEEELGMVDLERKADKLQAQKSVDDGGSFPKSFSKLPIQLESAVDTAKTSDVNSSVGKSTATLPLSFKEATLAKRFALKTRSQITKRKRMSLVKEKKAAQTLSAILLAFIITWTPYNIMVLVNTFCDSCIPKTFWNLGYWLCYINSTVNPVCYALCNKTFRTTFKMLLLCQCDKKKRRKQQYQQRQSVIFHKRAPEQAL

SMILES: CCN(Cc1ccccc1)C(=O)C1CCN(S(=O)(=O)c2ccc3occc3c2)CC1 [6o]
improvement in hM5 PAM EC50 over the naked phenylsulfonamide (human M5 receptors): approximately 3 fold

SMILES: CCN(Cc1ccccc1)C(=O)C1CCN(S(=O)(=O)c2ccc3[nH]ncc3c2)CC1 [6p]
improvement in hM5 PAM EC50 over the naked phenylsulfonamide (human M5 receptors): approximately 3 fold

SMILES: CCN(Cc1ccccc1)C(=O)C1CCN(S(=O)(=O)c2ccc3cn[nH]c3c2)CC1 [6q]
improvement in hM5 PAM EC50 over the naked phenylsulfonamide (human M5 receptors): approximately 3 fold

SMILES: CCN(Cc1ccccc1C(F)(F)F)C(=O)C1CCN(S(=O)(=O)c2ccc3[nH]ncc3c2)CC1 [8n, 1-((1H-Indazol-5-yl)sulfonyl)-N-ethyl-N-(2-(trifluoromethyl)benzyl)piperidine-4-carboxamide]
selectivity over hM3 (hM3): greater than 10 fold
ACh fold shift (hM5 receptor [1]): 7- to 12 fold
effect on [3H]NMS binding (in words) (hM5 receptor [3]): no inhibitory effect
hM5 PAM potency relative to des-CF3 congener 6p (human M5 receptors; more potent): 8 fold
hepatic microsomal intrinsic clearance CLint ([4]; rat): 2600 mL min^–1 kg^–1
predicted hepatic clearance CLhep ([4]; rat): 68 mL min^–1 kg^–1
CLint scaled at 1 µM ([4]; rat, liver microsomes, pH 7.4): 156 L/h/kg
predicted CLhep (mL/min/kg) ([4]; rat, well-stirred model from CLint, not corrected for fu plasma): rat: 68 mL/min/kg
activity at hM2 (in words) (hM2): no activity
hepatic microsomal intrinsic clearance CLint [5]: 540 mL min^–1 kg^–1
predicted hepatic clearance CLhep [5]: 20 mL min^–1 kg^–1
CLint scaled at 1 µM ([5]; liver microsomes, pH 7.4): 32.4 L/h/kg
predicted CLhep (mL/min/kg) ([5]; well-stirred model from CLint, not corrected for fu plasma): human: 20 mL/min/kg
activity at hM4 (in words) (hM4): no activity
selectivity over hM1 (hM1): greater than 10 fold

Further lines, with some results ahead:

ACh fold shift (hM5 receptor [1]): 7- to 12 fold
improvement in hM5 potency relative to des-methyl analog 6b (human M5 receptors): 3 fold
SMILES: CCN(C(=O)C1CCN(S(=O)(=O)c2ccc(OC)cc2)CC1)[C@H](C)c1ccccc1 [7b]

ACh fold shift (hM5 receptor [1]): 7- to 12 fold
SMILES: CCN(C(=O)C1CCN(S(=O)(=O)c2ccc3[nH]ncc3c2)CC1)[C@H](C)c1ccccc1 [7g]
primary site of metabolism [2]: N-ethyl moiety as the primary site of metabolism

ACh fold shift (hM5 receptor [1]): 7- to 12 fold
SMILES: CCN(Cc1ccccc1C(F)(F)F)C(=O)C1CCN(S(=O)(=O)c2ccc3cn[nH]c3c2)CC1 [8j]

activity at hM5 (in words) (human M5 receptors; PAM, calcium mobilization): complete absence of activity
SMILES: O=C(C1CCN(S(=O)(=O)c2ccc3[nH]ncc3c2)CC1)N(Cc1ccccc1C(F)(F)F)C1CC1 [9d]
change of intrinsic microsomal clearance (in words) ([4]; relative to the other analogs (rat CLint > 500)): reduce intrinsic microsomal clearance by an order of magnitude
